The structures appear in SMILES notation.

For one assay, the target named is T1, rPhep_4048 (FucT) (Pedobacter heparinus, UniProt C6XWF0).
T1 construct: gene Phep_4048; tag kept; partly degraded
T1 sequence (C6XWF0 1-252): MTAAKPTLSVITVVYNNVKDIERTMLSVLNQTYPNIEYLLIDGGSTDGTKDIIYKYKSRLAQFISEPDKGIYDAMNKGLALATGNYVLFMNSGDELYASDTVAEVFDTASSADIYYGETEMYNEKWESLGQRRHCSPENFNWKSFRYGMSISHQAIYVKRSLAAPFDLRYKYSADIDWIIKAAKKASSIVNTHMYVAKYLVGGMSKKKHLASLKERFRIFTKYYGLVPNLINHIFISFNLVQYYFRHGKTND
In words: TLC and ESI-MS of fucosylated product. Type of assay: biochemical. As to conditions: donor; acceptor pNP-α-D-Gal 8 mM, 5 mM MgCl2, 5 mM MnCl2, pH 7.4, 37 °C, overnight. The source says:
(§1) All three enzymes transferred L-Fuc to pNP-α-Gal

A further assay has as its target T2, rBF4306 (FucT) (Bacteroides fragilis, UniProt Q5L7H9).
T2 construct: gene BF9343_4192; tag kept; partly degraded
In words: TLC and ESI-MS of fucosylated product. It is filed as biochemical. Particulars: 5 mM MgCl2, 5 mM MnCl2, pH 7.4, 37 °C, overnight.
Text: as §1

T2 sequence (Q5L7H9 entry or part of it): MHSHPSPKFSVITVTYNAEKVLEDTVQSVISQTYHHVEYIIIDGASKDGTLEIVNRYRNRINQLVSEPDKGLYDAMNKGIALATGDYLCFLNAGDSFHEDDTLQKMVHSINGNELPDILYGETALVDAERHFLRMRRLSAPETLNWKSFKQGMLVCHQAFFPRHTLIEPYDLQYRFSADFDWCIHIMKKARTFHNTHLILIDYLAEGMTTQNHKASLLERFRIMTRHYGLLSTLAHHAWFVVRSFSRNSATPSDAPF

In the case of `C[C@@H]1O[C@H](OP(=O)(O)OP(=O)(O)OC[C@H]2O[C@@H](n3cnc4c(=O)[nH]c(N)nc43)[C@H](O)[C@@H]2O)[C@@H](O)[C@H](O)[C@@H]1O` [GDP-L-Fuc], the “TLC and ESI-MS of fucosylated product” value on rPhep_4048 (FucT) is recorded as “with GDP-L-Fuc serving as the Fuc donor. All three enzymes transferred L-Fuc to pNP-α-Gal”; at rBF4306 (FucT) (donor, acceptor pNP-α-D-Glc 8 mM), “with GDP-L-Fuc serving as the Fuc donor. All three enzymes transferred L-Fuc to pNP-α-Gal”.

For `O=[N+]([O-])c1ccc(O[C@H]2O[C@H](CO)[C@@H](O)[C@H](O)[C@H]2O)cc1` [pNP-α-D-Glc], on rBF4306 (FucT) (2 mM GDP-L-Fuc, 8 mM acceptor), the “TLC and ESI-MS of fucosylated product” value is reported as “rBF4306 demonstrated very low activity with all substrates; pNP-α-Glc was the best substrate”.
